Assay [1] addresses T1, S1P1 (Homo sapiens, UniProt P21453).
T1 construct: expressed in transfected cells; host or cells: CHO cells
The assay is described as follows: S1P1 Binding Assay (33P-S1P competition, CHO membranes). The conditions noted are these: membranes of CHO cells expressing human S1P1, 33P-S1P ligand; read-out: S1P1 B IC50. How it is done:
Membranes were prepared from CHO cells expressing human S1P1. Cells were dissociated in buffer containing 20 mM HEPES, pH 7.5, 50 mM NaCl, 2 mM EDTA and Protease Inhibitor cocktail (Roche), and disrupted on ice using the Polytron homogenizer. The homogenate was centrifuged at 20,000 rpm (48,000 g) and the supernatant was discarded. The membrane pellets were resuspended in buffer containing 50 mM HEPES, pH 7.5, 100 mM NaCl, 1 mM MgCl2, 2 mM EDTA and stored in aliquots at −80° C. after protein concentration determination.
Membranes (2 μg/well) and 0.03 nM final concentration of ^33P-S1P ligand (1 mCi/ml, American Radiolabeled Chemicals) were added to the compound plates. Binding was performed for 60 min at room temperature, terminated by collecting the membranes onto GF/B filter plates, and radioactivity was measured by TOPCOUNT®. The competition data of the test compounds over a range of concentrations was plotted as percentage inhibition of radioligand specific binding. The IC50 is defined as the concentration of competing ligand needed to reduce specific binding by 50%.
Compounds of the present invention and Comparative Compound A were tested in the S1P1 binding assay described hereinabove and the results rounded to two digits, shown in Table A were obtained. In some instances, the value is an average of multiple experiments where N is the number of experiments conducted that provided satisfactory dose response curves. When more than one batch of an example was tested, the value presented is from the batch which allowed a comparison of GTPγS S1P1 and GTPγS S1P3 in Method A (Data shown in Table B). Data was not averaged across different batches of an example compound.

The target of assay [2] is T1, S1P1. In words: Method A: Receptor [35S] GTPγS Binding Assay, S1P1. In kind it is biochemical. The protocol:
(§1) Method A: Receptor [35S] GTPγS Binding Assays
(§2) Compounds were loaded in a 384 FALCON® v-bottom plate (0.5 μl/well in a 3-fold dilution). Membranes prepared from S1P1/CHO cells or EDG3-Gal5-bla HEK293T cells were added to the compound plate (40 μl/well, final protein 3 μg/well) with MULTIDROP®. [^35S]GTP (1250 Ci/mmol, Perkin Elmer) was diluted in assay buffer: 20 mM HEPES, pH7.5, 10 mM MgCl2, 150 mM NaCl, 1 mM EGTA, 1 mM DTT, 10 μM GDP, 0.1% fatty acid free BSA, and 10 μg/ml Saponin to 0.4 nM. 40 μl of the [^35S] GTP solution was added to the compound plate with a final concentration of 0.2 nM. The reaction was kept at room temperature for 45 min. At the end of incubation, all the mixtures in the compound plate were transferred to a 384 well FB filter plates via GPCR robot system. The filter plate was washed with water 4 times by using the modified manifold Embla plate washer and dried at 60° C. for 45 min. 30 μA of MicroScint 20 scintillation fluid was added to each well for counting at Packard TOPCOUNT®. EC50 is defined as the agonist concentration that corresponds to 50% of the Ymax (maximal response) obtained for each individual compound tested.
(§3) Compounds of the present invention and Comparative Compound A were tested in the Receptor [^35S] GTPγS Binding Assays (Method A) and Receptor [^35S] In some instances, the value is an average of multiple experiments where N is the number of experiments conducted that provided satisfactory dose response curves. When more than one batch of an example was tested, the value presented is from a batch which allowed a comparison of GTPγS S1P1 and GTPγS S1P3 in which the most number of experiments were performed. Preferably, the same batch was examined in Method A and Method B. Data was not averaged across different batches of an example compound.
A general note: GTPγS resists hydrolysis and so accumulates on activated G proteins.

For assay [3], the target named is T1, S1P1. In words: Method B: Receptor [35S] GTPγS SPA Binding Assay, S1P1. In kind it is biochemical. The protocol:
(§4) Method B: Receptor [^35S] GTPγS SPA Binding Assays
(§5) Membranes prepared from S1P1 or S1P3 transfected CHO cells (2 μg protein) were incubated in 96-well white plates (CORNING® 3693) with test compounds diluted in DMSO, in 50 μl of reaction mixture containing 7.5 μA WGA-PVT beads (20 mg/ml), and 5 μM GDP, 20 mM HEPES pH 7.4, 100 mM NaCl, 1 mM EDTA, 5 mM MgCl2, 10 μg/ml saponin, 0.1% BSA, and 1 μM leupeptin. The assay was initiated with the addition of […] of 0.2 nM [^35S]-GTPγS (1250 Ci/mmol; NEN) in assay buffer. After 90 min incubation at room temperature, spin the plate at 1000 rpm for 5 min. The bound radionuclides were measured at TOPCOUNT®, expressed as % response relative to S1P (1 μM) activation. Data was analyzed using the four parameter logistic equation in Excel. The four parameters in the equation, Y=A+((B−A)/(1+((EC50/X)^D))), are described as following: A is the Y value (agonist activity) at the bottom plateau; B is the Y value at the top plateau; EC50 is the X value (agonist concentration) when the response is halfway between bottom and top; D is Hill coefficient. Curves were not generated for compounds having Ymax values were below 50%.
as §3

For the next assay, the system named is circulating lymphocytes. In words: Blood Lymphocyte Reduction Assay (BLR) in mice. Particulars: oral. The class given is in vivo, BALB/c mice. How it is done: Blood Lymphocyte Reduction Assay (BLR) in Rodents
Lewis rats or BALB/c mice were dosed orally with test article (as a solution or suspension in the vehicle) or vehicle alone (polyethylene glycol 300, “PEG300”). Blood was drawn at 4 hr and 24 h by retro-orbital bleeding. Blood lymphocyte counts were determined on an ADVIA 120 Hematology Analyzer (Siemens Healthcare Diagnostics). The results were measured as a reduction in the percentage of circulating lymphocytes as compared to the vehicle treated group at the 4 hr and 24 hr measurement. The results represent the average results of all animals within each treatment group (n=3-4).
Compounds of the present invention were tested in the Blood Lymphocyte Reduction assay (BLR) described hereinabove and the results are shown in Table D for rats and Table E for mice.

For assay [4], the target named is T2, S1P3 (Homo sapiens, UniProt Q99500). In words: Method A: Receptor [35S] GTPγS Binding Assay, S1P3. In kind it is biochemical. Also on record: expressed in transfected cells. Particulars: EDG3-Gal5-bla HEK293T cell membranes. The protocol: as §1, §2, §3
T2 sequence (Q99500 whole entry): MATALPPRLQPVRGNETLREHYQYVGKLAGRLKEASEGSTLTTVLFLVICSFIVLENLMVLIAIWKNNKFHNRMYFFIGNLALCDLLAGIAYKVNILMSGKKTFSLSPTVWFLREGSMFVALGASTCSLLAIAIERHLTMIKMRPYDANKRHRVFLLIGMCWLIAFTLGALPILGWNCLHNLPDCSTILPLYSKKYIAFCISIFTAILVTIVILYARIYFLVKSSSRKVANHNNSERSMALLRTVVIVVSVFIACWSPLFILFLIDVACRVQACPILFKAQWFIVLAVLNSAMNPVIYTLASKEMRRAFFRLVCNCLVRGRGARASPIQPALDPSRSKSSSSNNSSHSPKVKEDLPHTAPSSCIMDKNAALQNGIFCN
Assay [5] has as its target T2, S1P3. The assay is described as follows: Method B: Receptor [35S] GTPγS SPA Binding Assay, S1P3. In kind it is biochemical. Set-up: expressed in transfected cells; host or cells: CHO cells. The conditions noted are these: S1P3 transfected CHO cell membranes. How it is done:
as §4, §5, §3

SMILES strings stand for the structures. pEC50, pIC50: −log10 of the molar value.

As usually defined, the pIC50 is −log10 of the IC50, conventionally taken in molar units. As a reminder, the pEC50 is −log10 of the EC50, conventionally taken in molar units.

T1 sequence (P21453 whole entry): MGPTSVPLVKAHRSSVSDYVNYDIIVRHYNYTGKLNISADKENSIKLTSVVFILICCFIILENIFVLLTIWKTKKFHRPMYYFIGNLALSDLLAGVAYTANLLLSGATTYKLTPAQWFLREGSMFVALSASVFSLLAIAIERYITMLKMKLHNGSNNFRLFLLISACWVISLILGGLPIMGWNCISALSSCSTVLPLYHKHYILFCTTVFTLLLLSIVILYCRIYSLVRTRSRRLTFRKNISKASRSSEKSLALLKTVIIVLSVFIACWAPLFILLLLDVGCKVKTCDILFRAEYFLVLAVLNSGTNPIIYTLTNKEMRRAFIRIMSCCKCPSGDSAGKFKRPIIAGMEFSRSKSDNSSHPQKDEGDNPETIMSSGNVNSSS

On to `O=C(O)C1CN(Cc2ccc(-c3noc(-c4cnn(-c5ccccn5)c4C(F)(F)F)n3)cc2)C1` [Example 1, 1-(4-(5-(1-(Pyridin-2-yl)-5-(trifluoromethyl)-1H-pyrazol-4-yl)-1,2,4-oxadiazol-3-yl)benzyl)azetidine-3-carboxylic acid], for which, on S1P1 [1], the pIC50 is 9.40. Moreover, the pEC50 at S1P1 [2] (Method A, S1P1/CHO cell membranes) is 8.54; on S1P1 [3] (Method B (SPA), S1P1 transfected CHO cell membranes) it was 9.30; at S1P3 [4] it was 5.17; on S1P3 [5], 5.36. In addition, the “GTPγS S1P3/S1P1 (Method A)” value at S1P1 [2] (ratio of S1P3 EC50 to S1P1 EC50, Method A) is 2,300. Besides, the “GTPγS S1P3/S1P1 (Method B)” value on S1P1 [3] (ratio of S1P3 EC50 to S1P1 EC50, Method B) is given as 8,800. Also, the “% reduction in lymphocytes at 4 hr.” value is 74% with circulating lymphocytes (0.3 mg/kg), 85% with circulating lymphocytes (1.0 mg/kg), 85% in the assay on circulating lymphocytes (3.0 mg/kg) and 84% with circulating lymphocytes (10.0 mg/kg). The “% reduction in lymphocytes at 24 hr.” value with circulating lymphocytes (0.3 mg/kg) is 30%; in the assay with circulating lymphocytes (1.0 mg/kg), 68%; in the assay with circulating lymphocytes (3.0 mg/kg), 76%; in the assay with circulating lymphocytes (10.0 mg/kg), 88%.

(Values after patent US8389509B2, “Substituted pyrazole compounds” (Bristol-Myers Squibb Company, priority 2009, dated 2013).)
